From publication PMC6143143 (Biochemistry, 2018)

What was measured:
SeCobD = target: T1, SeCobD (Salmonella enterica, UniProt P97084); assay: […]-NMR and […] TLC decarboxylation assay; format: biochemical; settings: decarboxylated to (R)-1-aminopropan-2-ol O-phosphate; pH 8.5
T1 sequence (P97084 1-364): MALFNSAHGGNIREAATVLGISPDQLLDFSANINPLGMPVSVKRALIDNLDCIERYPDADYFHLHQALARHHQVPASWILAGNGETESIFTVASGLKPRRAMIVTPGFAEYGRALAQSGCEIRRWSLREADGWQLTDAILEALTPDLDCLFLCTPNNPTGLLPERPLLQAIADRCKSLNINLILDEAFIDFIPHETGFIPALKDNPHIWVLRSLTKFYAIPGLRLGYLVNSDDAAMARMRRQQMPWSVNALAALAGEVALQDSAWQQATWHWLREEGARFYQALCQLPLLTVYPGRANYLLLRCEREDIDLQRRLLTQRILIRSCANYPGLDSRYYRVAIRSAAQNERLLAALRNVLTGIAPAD

[1] = target: MmCobD (MM2060 protein, full length) (Methanosarcina mazei, UniProt Q8PVB1); assay: ADP-Glo ATPase inhibition assay; format: biochemical; settings: MmCobD 6 μM, HEPES pH 7.5

C[C@@H](OP(=O)(O)O)[C@H](N)C(=O)O [L-Thr-P]
13C-NMR and 14C TLC decarboxylation assay (SeCobD): conversion of L-Thr-P (peaks A, B, C, D; red) to AP-P

[O]=[V]([OH])([OH])[OH] [Na3VO4]
inhibition ([1]; inhibitor 1 mM, weakest of the series): MmCobD was inhibited in the following order from most inhibitory to least: BeF2>ADP>ADP-γ-S>PPPi>Na3VO4

O=P(O)(O)OP(=O)(O)OP(=O)(O)O [PPPi]
inhibition ([1]; inhibitor 10 mM): MmCobD was inhibited in the following order from most inhibitory to least: BeF2>ADP>ADP-γ-S>PPPi>Na3VO4
